Reference: patent publication US20250281464A1, “TREATMENT OF PATHOGENIC NEISSERIA SP. INFECTION WITH TRIAZOLE ANTIFUNGAL AGENTS” (Virginia Tech Intellectual Properties, Inc., priority 2022, published 2025)
≈ marks a conversion by molar mass, not a printed value.

Tests used:
N. meingitidis = assay: MIC against Neisseria spp.; format: cell-based, Neisseria meningitidis; conditions: N. meingitidis (5 strains)
L. jensenii = assay: MIC against commensal vaginal Lactobacillus strains; format: cell-based, Lactobacillus jensenii; conditions: for MIC: Lactobacillus jensenii
From the text: N. gonorrhoeae pathogenesis greatly depends on colonization of the reproductive tract. One of the natural barriers of such colonization is an intact healthy microbiome. Species of lactobacilli present in the genitourinary tract play a significant role in hindering colonization by Neisseria(1).
A healthy vaginal microbiome that is dominated by Lactobacillus spp. is less susceptible to N. gonorrhoeae infection and other sexually transmitted diseases (STDs). […] We tested the activity of azoles against important members of healthy vaginal microbiota that inhibit N. gonorrhoeae colonization.

Escherichia coli = assay: MIC against normal gut microbiota; format: cell-based; conditions: Escherichia coli (1 strain)
From the text: Disrupting the intestinal microbiota using broad-spectrum antimicrobial therapy increases the susceptibility of hosts to C. difficile colonization.

N. lactamica = assay: MIC against Neisseria spp.; format: cell-based; conditions: N. lactamica (1 strain)
From the text: (§1) Intrigued by the specificity and potent activity of azoles against N. gonorrhoeae, we evaluated the extent of the azoles' antibacterial activity against other Neisseria species (Table 8).

N. flavescens = assay: MIC against Neisseria spp.; format: cell-based; conditions: N. flavescens (1 strain)
From the text: as §1

N. mucosa = assay: MIC against Neisseria spp.; format: cell-based; conditions: N. mucosa (1 strain)
From the text: as §1

- MIC Range (N. meingitidis): 0.25 to 0.5 µg/mL
- MIC (L. jensenii; L. jensenii HM-105): > 256 µg/mL
- MIC (L. jensenii; L. jensenii HM-372): > 256 µg/mL
- MIC (L. jensenii; L. jensenii HM-374): > 256 µg/mL
- MIC (L. jensenii; L. jensenii HM-639): > 256 µg/mL
- MIC (L. jensenii; L. jensenii HM-640): > 256 µg/mL
- MIC (L. jensenii; L. jensenii HM-645): > 256 µg/mL
- MIC (L. jensenii; L. jensenii HM-646): > 256 µg/mL
- MIC Range (L. jensenii; Table 6, L. jensenii (7 strains)): ≥256 µg/mL
- MIC Range (N. lactamica): 1 µg/mL (≈ 2.29 µM)
- MIC Range (N. flavescens): 16 µg/mL (≈ 36.6 µM)
- MIC Range (N. mucosa): 8 µg/mL (≈ 18.3 µM)
Compound: C[C@@H](c1nc(-c2ccc(C#N)cc2)cs1)[C@](O)(Cn1cncn1)c1cc(F)ccc1F [Isavuconazole]
- MIC Range (Escherichia coli): >256 µg/mL
